Data: ChEMBL document CHEMBL1287646, “Chemometric modeling of free radical scavenging activity of flavone derivatives” (Eur J Med Chem, 2010)

System: Radical scavenging activity
Test: Antioxidant activity assessed as DPPH radical scavenging activity
Type: functional

Compound | ED50 [µM]
COc1ccc2c(=O)c(-c3ccc(O)c(O)c3)coc2c1O | 53
COc1cc(CC(=O)c2ccc(OC)c(O)c2O)ccc1O | 28
Oc1ccc(C2COc3c(ccc(O)c3O)C2)cc1 (stereo not given) | 37
COc1cc(-c2coc3cc(O)c(OC)cc3c2=O)ccc1O | 655
COc1ccc(CC(=O)c2cc(O)c(O)cc2O)cc1 | 32
COc1ccc(C2COc3c(ccc(O)c3O)C2)cc1 (stereo not given) | 36
COc1ccc(CC(=O)c2cc(O)c(C)c(C)c2O)cc1 | 93
COc1ccc(C2COc3cc(C)c(O)cc3C2)cc1 (stereo not given) | 45
COc1cc2c(cc1O)CC(c1ccccc1)CO2 (stereo not given) | 49
Cc1c(O)cc(C(=O)Cc2ccc(O)cc2)c(O)c1C | 33
Cc1cc(O)c(C(=O)Cc2ccc(O)cc2)cc1O | 31
COc1cc(CC(=O)c2cc(OC)c(O)cc2O)ccc1O | 129
COc1cc2c(cc1O)OCC(c1ccccc1)C2 (stereo not given) | 29
Cc1ccc2c(=O)c(-c3ccc(O)c(O)c3)coc2c1O | 46
COc1ccc(C2COc3c(ccc(O)c3O)C2)cc1OC (stereo not given) | 105
COc1cc(O)c(C(=O)C(C)c2ccc(O)cc2)cc1O (stereo not given) | 45
Oc1ccc2c(c1O)OCC(c1ccccc1)C2 (stereo not given) | 37
Cc1cc(O)c(C(=O)Cc2ccc(O)c(O)c2)cc1O | 20
COc1ccc(C2COc3c(ccc(C)c3O)C2)cc1 (stereo not given) | 52
COc1ccc2c(=O)c(-c3ccccc3)coc2c1O | 812
O=C(Cc1ccccc1)c1cc(O)c(O)cc1O | 29
Oc1ccc(C2COc3cc(O)cc(O)c3C2)cc1 (stereo not given) | 32

Compound | ED50 [µM]
COc1ccc(-c2coc3c(O)c(OC)ccc3c2=O)cc1 | 489
COc1ccc(-c2coc3cc(O)c(OC)cc3c2=O)cc1 | 663
O=C(Cc1ccc(O)c(O)c1)c1ccc(O)c(O)c1O | 12
COc1cc2c(cc1O)CC(c1ccc(OC)c(OC)c1)CO2 (stereo not given) | 56
Cc1ccc2c(c1O)OCC(c1ccc(O)cc1)C2 (stereo not given) | 111
COc1cc(-c2coc3c(O)c(O)ccc3c2=O)ccc1O | 33
COc1cc(-c2coc3c(O)c(OC)ccc3c2=O)ccc1O | 228
O=c1c(-c2ccc(O)c(O)c2)coc2cc(O)ccc12 | 30
O=c1c(-c2ccccc2)coc2cc(O)c(O)cc12 | 44
Cc1c(O)cc2c(c1C)OCC(c1ccccc1)C2 (stereo not given) | 81
COc1cc2c(cc1O)CC(c1ccc(O)cc1)CO2 (stereo not given) | 62
Cc1c(O)cc(C(=O)Cc2ccc(O)c(O)c2)c(O)c1C | 18
COc1cc(-c2coc3cc(OC)c(O)cc3c2=O)ccc1O | 404
COc1cc(O)c(C(=O)Cc2ccc(O)cc2)cc1O | 38
COc1ccc(-c2coc3c(O)c(O)ccc3c2=O)cc1 | 51
CC(C(=O)c1ccc(O)c(O)c1O)c1ccccc1 (stereo not given) | 23
COc1cc(CC(=O)c2ccc(O)c(O)c2O)ccc1O | 25
COc1ccc(C(=O)Cc2ccccc2)c(O)c1O | 20
COc1cc(-c2coc3cc(O)ccc3c2=O)ccc1O | 805
COc1cc(-c2coc3c(O)c(C)ccc3c2=O)ccc1O | 476
COc1ccc(-c2coc3cc(O)c(O)cc3c2=O)cc1 | 29
COc1ccc(C(=O)Cc2ccc(O)c(O)c2)c(O)c1O | 20

Compound | ED50 [µM]
COc1cc2occ(-c3ccc(O)c(O)c3)c(=O)c2cc1OC | 46
Cc1c(O)cc(C(=O)Cc2ccccc2)c(O)c1C | 42
COc1ccc(CC(=O)c2ccc(O)c(O)c2O)cc1OC | 63
COc1cc(O)c(C(=O)Cc2ccccc2)cc1O | 51
O=C(Cc1ccc(O)c(O)c1)c1ccc(O)cc1O | 20
Oc1ccc2c(c1)OCC(c1ccc(O)c(O)c1)C2 (stereo not given) | 37
COc1cc(CC(=O)c2cc(O)c(C)cc2O)ccc1O | 22
COc1ccc(CC(=O)c2ccc(O)c(O)c2O)cc1 | 38
COc1ccc(C2COc3cc(O)cc(O)c3C2)cc1 (stereo not given) | 26
Cc1ccc2c(c1O)OCC(c1ccccc1)C2 (stereo not given) | 61
CC(C(=O)c1ccc(O)c(O)c1O)c1ccc(O)cc1 (stereo not given) | 18
Cc1cc2occ(-c3ccc(O)c(O)c3)c(=O)c2cc1O | 23
COc1ccc(CC(=O)c2ccc(OC)c(O)c2O)cc1 | 44
O=C(Cc1ccc(O)cc1)c1cc(O)c(O)cc1O | 27
O=c1c(-c2ccc(O)cc2)coc2cc(O)c(O)cc12 | 29
COc1cc(-c2coc3cc(C)c(O)cc3c2=O)ccc1O | 232
Cc1c(O)cc2c(=O)c(-c3ccc(O)c(O)c3)coc2c1C | 85
Cc1cc(O)c(C(=O)Cc2ccccc2)cc1O | 43
COc1cc(CC(=O)c2cc(OC)c(OC)cc2O)ccc1O | 84
COc1cc2occ(-c3ccc(O)c(O)c3)c(=O)c2cc1O | 36
COc1ccc(C2COc3cc(OC)c(O)cc3C2)cc1 (stereo not given) | 60
COc1ccc(CC(=O)c2cc(O)c(C)cc2O)cc1 | 23

Compound | ED50 [µM]
O=C(Cc1ccc(O)cc1)c1ccc(O)c(O)c1O | 22
COc1cc(CC(=O)c2cc(O)c(OC)cc2O)ccc1O | 26
COc1ccc(CC(=O)c2cc(O)c(OC)cc2O)cc1 | 31
COc1ccc2c(c1O)OCC(c1ccccc1)C2 (stereo not given) | 168
Oc1ccc(C2COc3c(ccc(O)c3O)C2)cc1O (stereo not given) | 22
COc1cc(O)c(C(=O)Cc2ccc(O)c(O)c2)cc1O | 19
COc1cc(O)c(C(=O)Cc2ccc(OC)c(OC)c2)cc1O | 39
COc1cc(CC(=O)c2ccc(O)cc2O)ccc1O | 180
COc1cc(-c2coc3cc(OC)c(OC)cc3c2=O)ccc1O | 722
O=c1c(-c2ccc(O)c(O)c2)coc2c(O)c(O)ccc12 | 16
COc1ccc(C2COc3c(ccc(OC)c3O)C2)cc1 (stereo not given) | 224
O=c1c(-c2ccc(O)cc2)coc2c(O)c(O)ccc12 | 34
COc1cc(O)c(C(=O)Cc2ccc(O)c(O)c2)cc1OC | 25
O=c1c(-c2ccccc2)coc2c(O)c(O)ccc12 | 29
COc1cc2c(cc1O)OCC(c1ccc(O)cc1)C2 (stereo not given) | 26
COc1cc2c(cc1OC)OCC(c1ccc(O)c(O)c1)C2 (stereo not given) | 69
COc1cc(O)c(C(=O)C(C)c2ccccc2)cc1O (stereo not given) | 48
COc1ccc(C2COc3cc(O)c(OC)cc3C2)cc1 (stereo not given) | 26
O=C(Cc1ccccc1)c1ccc(O)c(O)c1O | 32
